Measurements taken from patent US6653344B2, “Pharmaceutical preparations containing a dibenzocyclooctane lignan derivative for treatment of neurodegenerative disease” (Elcom Bio Technology Co., Ltd., priority 2000, dated 2003).

Legend:
Type in all cases: cell-based
[1] = tested on: NMDA-insulted primary cultured rat cortical cells; assay: Neuroprotection against NMDA-induced toxicity, cell viability by MTT assay; conditions: for Viability (%) NMDA-insulted: compound 1 µM for 1 hr, then 50 µM NMDA, 24 hr
Method: (§1) Primary cultures of mixed cortical cells containing both neuron and glia were prepared from fetal rats as described previously (Kim Y C, Kim S R, Markelonis G J and Oh T H (1998) Ginsenosides Rb1 and Rg3 protect cultured rat cortical cells from glutamate-induced neurodegeneration. J. Neurosci. Res. 53: 426-432).
(§2) The cortical cells were plated onto collagen-coated dishes at a density of 1×10^6 cells/ml. The cultured cells were grown in DMEM supplemented with 10% heat-inactivated fetal calf serum, 1 mM sodium pyruvate, 100 IU/ml pecicillin and 100 μg/ml streptomycin at 37° C. in a humidified atmosphere of 95% air/5% CO2. cultures were allowed to mature for 2 weeks before being used for experiments.
(§3) To culture broth of the cortical cells during being cultured, MTT(5 mg/ml) was added by 10% of the culture broth. The broth was cultured for more 3 hours. The formed formazan was dissolved by DMSO and was assayed absorption at 540 nm ((Mosmann T (1983) Rapid colorimetric assay for cellular growth and survival: Application to proliferation and cytotoxicity assays. J. Immuno. Methods 65: 55-61)
(§4) Glutamate receiptor is divided into NMDA receiptor which is activated by NMDA and non-NMDA receiptor which is activated by alpha-amino-3-hydroxy-5-methyl-4-isoxazole and kainic acid (KA). To first cultured cortical cells, the above compounds were each treated. The neuro-protective activities of the compounds were measured, after toxicities were induced by NMDA, the NMDA receiptor agonist, or KA, the non-NMDA receiptor agonist.
(§5) Rat cortical cultures were treated with compounds at the concentration of 1 M for 1 hr. The cultures were then exposed to 50 µM NMDA or 50 µM KA and were maintained for an additional 24 hr. […]. Cell viability was measured by the MTT assay. Optical density of control, NMDA- and KA treated were 1.20±0.10, 0.77±0.05 and 0.85±0.08, respectively. Viability was calculated as the same as Table 1. Values given represent the mean SD (n=3).

[2] = tested on: KA-insulted primary cultured rat cortical cells; assay: Neuroprotection against KA-induced toxicity, cell viability by MTT assay; conditions: for Viability (%) KA-insulted: compound 1 µM for 1 hr, then 50 µM KA, 24 hr
Method: as §1, §2, §3, §4, §5

[3] = tested on: nitric oxide (NO) content in glutamate-damaged primary cultured rat cortical cells; assay: Measurement of nitrite (Griess reagent), NO content; conditions: 24 hr; for Nitrate: compound 1 µM for 1 hr before 100 µM glutamate, control 90.2, glutamate-treated 141.8; for Protection (NO content): compound 1 M (1 μM) for 1 hr before 100 M glutamate
Method: The content of nitrite isolated into culture broth from first cultured cortical cells was assayed by using Griess reagent by Dawson's method (Dawson V L, Brahbhatt H P, Mong J A and Dawson T M (1994) Expression of inducible nitric oxide synthase causes delayed neurotoxicity in primary neuronal-glial cortical cultures. Neuropharmacology 33: 1425-1430).
(§6) In case glutamate is treated to first cultured cortical cells of mice, formation of NO is increased. […] When schizandrin is treated at the 1 μM concentration, it decreased NO content increased by glutamate. […] When deoxyschizandrin, gomisin N and wuweizisu C are treated at 1 uM concentration to first cultured cortical cells toxicity-induced by glutamate, those maintained about 50% of normal state activity of GSH-px and glutathione decreased by glutamate and have protective activity on the activity of antioxidant enzymes.
(§7) Rat cortical cultures were treated with compounds at the concentration of 1 M for 1 hr before exposure to 100 M glutamate and then maintained for 24 hr. Values given represent the mean SD (n=3).

[4] = tested on: GSH-px activity in glutamate-injured primary cultured rat cortical cells; assay: Measurement of glutathione peroxidase activity (GSH-px); conditions: 24 hr; for GSH-px: compound 1 µM for 1 hr before 100 µM glutamate, control 18.7, glutamate-treated 9.2; for Protection (GSH-px activity): compound 1 M (1 uM) for 1 hr before 100 M glutamate
Method: (§8) Cells were collected by adding 0.1M potassium phosphate buffer (pH 7.4) to culture-broth-removed remainings from first cultured cortical cells. The collected cells were treated by supersonic wave for 20 seconds and were centrifuged at 4° C. with 3,000 g for 20 minutes to obtain the supernatant.
1 ml solution in test tube comprising 100 mM potassium phosphate buffer (pH 7.4), 1 mM reduced glutathione (GSH), 0.2 mM NADPH, 0.5 mM H2O2 and 1.5 units/ml of GSSG-reductase (GSSG-r) was prepared and 10 μl of cell supernatant was added and reacted. The loss of adsoption at 340 nm was assayed and the activity of GSH-px was measured.
as §6, §7

[5] = tested on: GSH content in glutamate-injured primary cultured rat cortical cells; assay: Measurement of total GSH (GSH+GSSG); conditions: 24 hr; for GSH: compound 1 µM for 1 hr before 100 µM glutamate, control 6.9, glutamate-treated 2.6; for Protection (GSH content): compound 1 M (1 uM) for 1 hr before 100 M glutamate
Method: as §8
In test tube, 70 μl solution containing 0.3 mM NADPH and 5 mM DTNB was prepared 0.100 μl of cell supernatant was added and final content 5 units/ml of GSSG-R was added thereto and was reacted. The increase of adsorption was measured at 412 nm for 1 minute. The content of GSH was converted and obtained by comparing the content of GSH with GSH standard. (Tietze F, Enzymatic method for quantative determination of nanogram amounts of total and oxidized glutathione, Anal Biochem 27: 502-522).
as §6, §7

| Structure (SMILES) | Viability (%) NMDA-insulted [1] [%] | neuroprotective activity against toxicity induced by KA (in words) [2] | Viability (%) KA-insulted [2] [%] | Nitrate [3] [nM] | Protection (NO content) [3] [%] | GSH-px [4] | Protection (GSH-px activity) [4] [%] | Protection (GSH-px activity) ([4]; listed as deoxyschizandrin) | GSH [5] [μmol/mg protein] | Protection (GSH content) [5] [%] | Protection (GSH content) ([5]; listed as deoxyschizandrin) | neuroprotective activity against toxicity induced by NMDA (in words) [1] | Protection (GSH-px activity) ([4]; listed as gomisin N) | Protection (GSH content) ([5]; listed as gomisin N) | Protection (GSH-px activity) ([4]; listed as wuweizisu C) | Protection (GSH content) ([5]; listed as wuweizisu C) |
| --- | --- | --- | --- | --- | --- | --- | --- | --- | --- | --- | --- | --- | --- | --- | --- | --- |
| COc1cc2c(c(OC)c1OC)-c1c(cc(OC)c(OC)c1OC)C[C@H](C)[C@H](C)C2 [Deoxyschizandrin, deoxyschizandrin] | 11.0 ± 3.5 | selectively neuroprotective activity | 38.2 ± 4.2 | 121.9 ± 3.1 | 40.2 | 15.3 ± 3.0 μmol NADPH consumed/min/mg pro | 62.1 | about 50% | 4.7 ± 1.1 | 48.8 | about 50% | – | – | – | – | – |
| COc1cc2c(c(OC)c1OC)-c1c(cc3c(c1OC)OCO3)C[C@H](C)[C@H](C)C2 [Gomisin N, gomisin N] | 45.5 ± 6.8 | – | 25.5 ± 4.5 | 111.4 ± 3.3 | 60.2 | 14.6 ± 4.1 μmol NADPH consumed/min/mg pro | 56.8 | – | 4.8 ± 1.3 | 51.2 | – | relatively better neuroprotective activity | about 50% | about 50% | – | – |
| COc1c2c(cc3c1-c1c(cc4c(c1OC)OCO4)C[C@H](C)[C@H](C)C3)OCO2 [Wuweizisu C, wuweizisu C] | 52.1 ± 7.1 | – | 15.0 ± 3.9 | 107.6 ± 2.9 | 65.8 | 13.9 ± 3.9 μmol NADPH consumed/min/mg pro | 49.5 | – | 4.4 ± 0.9 | 41.9 | – | has neuroprotective activity | – | – | about 50% | about 50% |
